Patent EP0713704A1, “2-Amino-1,3-thiazines as nitric oxide synthase inhibitors” (HOECHST AKTIENGESELLSCHAFT, priority 1994, dated 1996)
Structures can show the parent of a compound that is named as a salt.

Assays:
[1] = target: induzierbaren NO-Synthase (Homo sapiens, UniProt P35228); test: NO synthase activity assay: quantification of coproduct 3H-L-citrulline formed from 3H-L-arginine; assay type: biochemical; details: read-out: Restaktivität
From the text: Die erfindungsgemäße Hemmung der NO-Freisetzung durch die Verbindungen der allgemeinen Formel I kann durch einen Aktivitätsassay bestimmt werden, der auf Arbeiten von Bredt und Snyder sowie Schmidt et al. basiert (s. D.S. Bredt und S.S. Snyder, Isolation of nitric oxide synthase, a calmodulin-requiring enzyme, Proc. Natl. Acad. Sci. USA 87 (1990), 682; H.H.H.W.Schmidt et al., Purification of a soluble isoform of guanylyl cyclase-activating factor synthase, Proc. Natl. Acad. Sci. USA 88 (1991), 365). Hierbei wird für gereinigte NO-Synthase (NOS) das bei der NO-Bildung anfallende Coprodukt L-Citrullin quantitativ erfaßt. Dies geschieht durch den Einsatz von ³H-radiomarkiertem L-Arginin als Substrat der Enzymreaktion, das zu ³H-L-Citrullin und NO umgesetzt wird. Nach Beendigung der Enzyminkubation wird […]; die durch Flüssigkeitsszintillationsmessung ermittelte ³H-Aktivität entspricht dann der Menge an L-Citrullin.
• a) Die Substanz ist analog Beispiel 2 erhältlich. Weiße Kristalle vom Schmp. 153 °C. • b) Die pharmakologische Wirkung wurde in dem oben beschriebenen Aktivitätsassy ermittelt, bei dem das von der NO-Synthase als Coprodukt gebildete Citrullin bestimmt wird. Es wurden folgende Hemmungen der induzierbaren NO-Synthase beobachtet: […]

NO-Synthase (iNOS) = target: T1, NO-Synthase (iNOS) (Mus musculus, UniProt P29477); test: NO measurement by oxyhaemoglobin on macrophages (inhibition of NO release, LPS/γIFN-stimulated); assay type: cell-based, Maus; details: Mäusemakrophagen RAW 264.7, stimulated with LPS + γIFN for 4 h, 120 min incubation with test substance; read-out: IC₅₀-Wert
T1 construct: wird die Neusynthese des NO-produzierenden Enzyms NO-Synthase (iNOS) induziert; endogenous in cells; host or cells: RAW 264.7 mouse macrophages stimulated with LPS and γ-interferon
Protocol: Die Hemmung der NO-Freisetzung durch die Verbindungen der allgemeinen Formel I kann auch durch NO-Messung mittels Oxyhämoglobin auf Makrophagen wie folgt bestimmt werden:
Die subkonfluenten Zellen werden mit dem Zellschaber abgekratzt, in Medium aufgenommen, die Zellzahl bestimmt (Zählung in Trypanblaulösung 0,2 %) und in 24-Napfplatten (1 x 10⁶ Zellen/ml, 1 ml/Napf) ausgesät.
Dazu wird das Kulturmedium von den Zellen abgesaugt und 1 ml/Napf (24-Napfplatte) Inkubationsmedium (MEM ohne Phenolrot (Biochrom F0385)), konditioniert mit 4mM Glutamin, 3,5 g Glukose/l, 3,7 g NaHCO₃/l, 110 mg Natriumpyruvat/l, 50 U/50 µg/ml Pen/Strep und 5 % FKS, aufgegeben. Pro ml Inkubationsmedium werden 1 µl LPS und 1 µl γIFN pipettiert.
Daraus ergeben sich folgende Konzentrationen der Stimulatoren: 140 ng LPS/ml + 5 U γIFN/ml [formula] Während der Stimulation über 4 Stunden wird die Neusynthese des NO-produzierenden Enzyms NO-Synthase (iNOS) induziert. Nach diesem Inkubationszeitraum wird das Inkubationsmedium abgesaugt und jeder Napf zweimal mit frischem Inkubationsmedium gespült. […] Als Kontrolle wird das konditionierte Versuchsmedium nur mit dem Lösungsmittel der Testsubstanz versetzt.
Nach dem Abpipettieren des Versuchsmediums wird die Cytotoxizität der Testsubstanz geprüft (Zellviabilität).

activity at 1 µM ([1]; Konzentration: 1 µM) | activity at 10 µM ([1]; Konzentration: 10 µM) | IC50 (NO-Synthase (iNOS)) | Compound
15% | 12% |  | CC1(C)CCSC(N)=N1 [Beispiel 3, 2-Amino-4,4-dimethyl-5,6-dihydro-1,3-thiazin-Hydrochlorid]
 |  | 1.3 µM | NC1=NCCCS1 [Beispiel 1, 2-Amino-5,6-dihydro-4H-1,3-thiazin-Hydrobromid]
